Test results: patent US20100068766A1, “COMPOSITION FOR CLEAVING AND/OR CONNECTING SINGLE STRAND DNA” (WASEDA UNIVERSITY, priority 2007, published 2010)

Assays:
Ev1 protein [1] = target: T1, Ev1 protein (Homo sapiens, UniProt Q9UI08); assay: Influence of low molecular weight compounds on single-stranded DNA catenation activity of the Ev1 protein; assay type: biochemical; settings: compound 1, 5, 10 and 20 μM; 4 μM Ev1 protein; 20 μM φ×174 single-stranded DNA; 37° C., 1 hour
T1 construct: in accordance with the protocols used in purification of the entire-length Ev1 protein; 6xHis (N, cleaved yes); made in house; host or cells: E. coli BL21 (DE3) codon plus-RP, pET15b vector
T1 sequence (Q9UI08 1-418 isoform Q9UI08-2): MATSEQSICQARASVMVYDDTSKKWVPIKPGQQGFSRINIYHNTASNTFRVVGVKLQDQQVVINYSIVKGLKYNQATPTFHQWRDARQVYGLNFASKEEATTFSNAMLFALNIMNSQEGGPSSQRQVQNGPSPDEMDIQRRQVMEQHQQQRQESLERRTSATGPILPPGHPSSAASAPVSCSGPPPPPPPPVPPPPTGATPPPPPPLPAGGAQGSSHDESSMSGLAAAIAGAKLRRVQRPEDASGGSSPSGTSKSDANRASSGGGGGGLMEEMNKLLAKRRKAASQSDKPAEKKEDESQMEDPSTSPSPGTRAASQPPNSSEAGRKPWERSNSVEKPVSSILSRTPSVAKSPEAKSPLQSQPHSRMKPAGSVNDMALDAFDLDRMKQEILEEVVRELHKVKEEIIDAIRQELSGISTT
Experimental: With regard to the influence of each compound on the catenation activity of the Ev1 protein (FIGS. 14a, 15a, 16, 17a, and 18a), each compound in final concentrations of 1, 5, 10, and 20 μM, a φ×174 single-stranded DNA in a final concentration of 20 μM, and an Ev1 protein in a final concentration of 4 μM were added to 10 μl of a reaction solution (20 mM HEPES, 1 mM DTT, 100 μg/ml BSA, and 1 mM MgCl2). The obtained mixture was reacted at 37° C. for 1 hour. After completion of the reaction, 2 μl of a PK solution (0.2% SDS and 1.3 mg/ml proteinase K) was added to the reaction solution, and the obtained mixture was then reacted at 37° C. for 15 minutes. Thereafter, the reaction product was electrophoresed on a 0.8% HGT agarose gel, and DNA was then detected with SYBR Gold.

Ev1 protein [2] = target: T1, Ev1 protein; assay: Gel shift method, single-stranded DNA binding activity of the Ev1 protein in the presence of compounds; settings: compound 1, 5, 10 and 20 μM; 0.3 μM Ev1 protein; 20 μM φ×174 single-stranded DNA; 37° C., 15 minutes
Experimental: Moreover, in a gel shift method involving single-stranded DNA binding activity (FIGS. 14b, 15b, 16b, 17b, and 18b), each compound in final concentrations of 1, 5, 10, and 20 μM, a φ×174 single-stranded DNA in a final concentration of 20 μM, and an Ev1 protein in a final concentration of 0.3 μM were added to 20 μl of a reaction solution (20 mM HEPES, 1 mM DTT, 100 μg/ml BSA, and 1 mM MgCl2). The obtained mixture was reacted at 37° C. for 15 minutes. Thereafter, the reaction product was electrophoresed on a 0.8% HGT agarose gel, and DNA was then detected with ethidium bromide.

Compound	effect on single-stranded DNA catenation activity of the Ev1 protein (Ev1 protein [1])	influence on activity of the Ev1 protein to bind to single-stranded DNA (gel shift) (Ev1 protein [2])
O=S(=O)(O)c1cc(N=C=S)ccc1C=Cc1ccc(N=C=S)cc1S(=O)(=O)O [DIDS]	inhibits the single-stranded DNA catenation activity of the Ev1 protein	inhibits the single-stranded DNA binding activity of the Ev1 protein
Cc1cc(N)c2ccccc2[n+]1CCCCCCCCCC[n+]1c(C)cc(N)c2ccccc21 [dequalinium, dequalinium chloride]	inhibits the single-stranded DNA catenation activity of the Ev1 protein	changes the binding manner of the Ev1 protein that binds to a single-stranded DNA
Nc1ccc2c(=S)c3ccccc3[nH]c2c1 [3-ATA, 3-amino-9-thio(10H)-acridone]	inhibits the single-stranded DNA catenation activity of the Ev1 protein	does not change the single-stranded DNA binding activity of the Ev1 protein
CC[C@@]1(O)C[C@H](O[C@H]2C[C@H](N(C)C)[C@H](O[C@H]3C[C@H](O)[C@H](O[C@H]4CCC(=O)[C@H](C)O4)[C@H](C)O3)[C@H](C)O2)c2c(cc3c(c2O)C(=O)c2c(O)cccc2C3=O)[C@H]1C(=O)OC [aclarubicin]	inhibits the activity of an Ev1 protein to catenate single-stranded DNA molecules	does not change the activity of the Ev1 protein to bind to circular single-stranded DNA
β-rubromycin	inhibits the single-stranded DNA catenation activity of the Ev1 protein	changes the binding manner of the Ev1 protein that binds to a single-stranded DNA
